Reference: paper PMC4189421, “Induction of Oligodendrocyte Differentiation and In Vitro Myelination by Inhibition of Rho-Associated Kinase” (ASN NEURO, 2014)

Legend:
mouse-derived OPCs = assay: Myelin protein mRNA expression in mouse-derived OPCs (qPCR); format: cell-based; conditions: mouse-derived OPCs exposed for 4 days
Method: Neurospheres (Nph) were prepared from embryos at 14.5 days of gestation obtained from timed pregnant females of C57/Bl6 mice, as previously described ([Kornblum, Yanni, Easterday, & Seroogy, 2000]; [Pedraza, Monk, Lei, Hao, & Macklin, 2008]). In brief, after separation of meninges and cerebellum, cerebrum tissue was mechanically triturated with a 1-ml micropipette until total tissue dissociation was achieved, filtered through a 70 -µm cell strainer (Fisher Scientific, Pittsburgh, PA), and plated in 25-cm^2 plastic culture flasks (2 brains/flask). Nph proliferation media (NPM) consisted of Dulbecco’s Modified Eagle Medium (DMEM)/F12, B27 neuronal supplement (Gibco, Baltimore, MD) and 10 ng/ml […] (EGF; Sigma, St. Louis, MO). After 48 to 72 hr, floating Nphs were passaged at a 1 : 1 ratio into 75-cm^2 culture flasks. After a further 48 to 72 hr, they were passaged into 150-cm^2 flasks. […]
Total RNA was isolated from single-cell cultures or tissue explants using Tri-Zol reagent (Gibco). cDNA was generated from 1 to 3 µg of total RNA by Retrotranscriptase II (Gibco) reaction, and the selected transcripts were detected and amplified by quantitative RT-PCR in an Applied Biosystems (Grand Island, NY) 7500 fast qPCR machine, following the manufacturer’s instructions. […]

mouse Nph-OPCs = assay: Cell proliferation as number of Hoechst-labeled nuclei; format: cell-based; conditions: 1 µM; n = 3 in triplicate wells; DMSO: 522 ± 126
Text: To determine the effects of ROCK inhibition on OPCs, we developed a high-content image morphological analysis of OPC differentiation using mouse embryonic neural progenitor-derived OPCs (Nph-OPCs). Neural progenitors grow as nonadherent spheroids known as neurospheres (Nph; [Chojnacki & Weiss, 2008]; [Tropepe et al., 1999]), which are considered to be a mixed population of neural stem cells and progenitors of the CNS ([Rao, 1999]; [Zhou & Chiang, 1998]). These cells have been previously used in multiple published studies for the generation of high-yield, high-purity cultures of OPCs from rodents ([Calaora et al., 2001]; [[…] al., 1997]; [Pedraza et al., 2008]). After 24 hr of plating on PDL-coated tissue culture plastic, Nph-OPCs were treated as indicated with differentiation stimuli and further incubated for 72 hr. […] Four images per well were analyzed using a neurite outgrowth module (Molecular Devices, Sunnyvale, CA). We quantified the number of branches and total outgrowth per cell (Figure 1). […] Additionally, nuclear staining by Hoechst allowed the accurate association of branches and processes to their corresponding cell bodies and permitted quantification of total cell numbers in each well. […]

C[C@@H](N)[C@H]1CC[C@H](C(=O)Nc2ccncc2)CC1.Cl.Cl [Y0503, trans-4-[(1 R)-1-aminoethyl]-N-4-pyridinylcyclohexanecarboxamide dihydrochloride] was tested, and the “MBP and PLP mRNA” value (mouse-derived OPCs) was “increased significantly” and the “Number of Hoechst-labeled nuclei” value (mouse Nph-OPCs) was 625 ± 88 cells/well.
